This is an account of results in patent US12344595B2, “2-amino-n-phenyl-nicotinamides as NAV1.8 inhibitors” (Merck Sharp & Dohme LLC, priority 2018, dated 2025).

By IC50 is commonly meant the concentration at which inhibition is half-maximal. Lower therefore signals inhibition by little substance.

Structures are written as SMILES.

This experiment has as its target human Nav1.8 (Homo sapiens (Human), UniProt Q9Y5Y9). Kind of experiment: Nav1.8 Qube automated patch-clamp assay. Type of experiment: cell-based. As to conditions: Nav1.8 Qube Assay; human Nav1.8 channels stably expressed in HEK 293 cells. As for the experimental part: Qube® Assay Experimental Procedure
Compounds were tested on human Nav1.8 and Nav1.5 channels stably expressed in human embryo kidney (HEK) 293 cells. Sodium current measurements on Qube® were conducted as follows: automated 384-well patch-clamp assays on the Qube® platform (Sophion Biosciences) were used to measure the inhibition of sodium flow through human Nav1.8 and Nav1.5 channels. Whole-cell voltage-clamp recordings were performed in QChips® (Sophion Biosciences) at room temperature. Nav1.8 current measurements on Qube® were obtained as follows: Nav1.8 currents were elicited with a 10 second 1 Hertz (Hz) pulse train from a holding potential of −90 millivolts (mV), delivered to the cells once per minute in the control condition (DMSO only) and after compound addition. The 1 hertz pulse train stimulation consisted of ten test pulses to 10 millivolt (mV) for 20 milliseconds (ms), each of which was followed by a 980 millisecond repolarization to −67 millivolts. At the end of the 10 second pulse train stimulation, a 5 second hyperpolarization step to −100 millivolt (mV) was used to recover Nav1.8 from fast inactivation. The peak currents elicited by the 1st and 10th test pulses were used to determine IC50 values for resting inhibition and inactivated state inhibition. Nav1.5 current measurements on Qube® were obtained as follows: Nav1.5 currents were elicited with a 20 second 3 Hertz pulse train in the control condition (DMSO only) and after compound addition. The pulse train consisted of sixty 20 millisecond test pulses to 0 millivolt from a holding potential of −80 millivolt (mV). The average peak currents elicited by the last 3 test pulses were used to determine IC50 values for Nav1.5 inhibition.
The following buffers were used for the Qube® recordings: External buffer for Nav1.8 Qube® recording: 150 NaCl, 2 CaCl2, 5 KCl, 1 Mg Cl2, 10 HEPES, 12 Dextrose; External buffer for Qube® Nav1.5 recording: 120 N-Methyl-D-Glucamine, 40 NaCl, 1 KCl, 2.7 CaCl2, 5 HEPES, 0.5 MgCl2; and Internal buffer for Qube® recording: 120 CsF, 30 CsCl, 10 EGTA, 5 HEPES, 5 NaF, 2 MgCl2.
For all Qube® experiments offline analysis was used to determine percent inhibition as a function of drug concentration. IC50 values were determined by fitting to the Hill equation.

human Nav1.8, sequence (Q9Y5Y9 whole entry): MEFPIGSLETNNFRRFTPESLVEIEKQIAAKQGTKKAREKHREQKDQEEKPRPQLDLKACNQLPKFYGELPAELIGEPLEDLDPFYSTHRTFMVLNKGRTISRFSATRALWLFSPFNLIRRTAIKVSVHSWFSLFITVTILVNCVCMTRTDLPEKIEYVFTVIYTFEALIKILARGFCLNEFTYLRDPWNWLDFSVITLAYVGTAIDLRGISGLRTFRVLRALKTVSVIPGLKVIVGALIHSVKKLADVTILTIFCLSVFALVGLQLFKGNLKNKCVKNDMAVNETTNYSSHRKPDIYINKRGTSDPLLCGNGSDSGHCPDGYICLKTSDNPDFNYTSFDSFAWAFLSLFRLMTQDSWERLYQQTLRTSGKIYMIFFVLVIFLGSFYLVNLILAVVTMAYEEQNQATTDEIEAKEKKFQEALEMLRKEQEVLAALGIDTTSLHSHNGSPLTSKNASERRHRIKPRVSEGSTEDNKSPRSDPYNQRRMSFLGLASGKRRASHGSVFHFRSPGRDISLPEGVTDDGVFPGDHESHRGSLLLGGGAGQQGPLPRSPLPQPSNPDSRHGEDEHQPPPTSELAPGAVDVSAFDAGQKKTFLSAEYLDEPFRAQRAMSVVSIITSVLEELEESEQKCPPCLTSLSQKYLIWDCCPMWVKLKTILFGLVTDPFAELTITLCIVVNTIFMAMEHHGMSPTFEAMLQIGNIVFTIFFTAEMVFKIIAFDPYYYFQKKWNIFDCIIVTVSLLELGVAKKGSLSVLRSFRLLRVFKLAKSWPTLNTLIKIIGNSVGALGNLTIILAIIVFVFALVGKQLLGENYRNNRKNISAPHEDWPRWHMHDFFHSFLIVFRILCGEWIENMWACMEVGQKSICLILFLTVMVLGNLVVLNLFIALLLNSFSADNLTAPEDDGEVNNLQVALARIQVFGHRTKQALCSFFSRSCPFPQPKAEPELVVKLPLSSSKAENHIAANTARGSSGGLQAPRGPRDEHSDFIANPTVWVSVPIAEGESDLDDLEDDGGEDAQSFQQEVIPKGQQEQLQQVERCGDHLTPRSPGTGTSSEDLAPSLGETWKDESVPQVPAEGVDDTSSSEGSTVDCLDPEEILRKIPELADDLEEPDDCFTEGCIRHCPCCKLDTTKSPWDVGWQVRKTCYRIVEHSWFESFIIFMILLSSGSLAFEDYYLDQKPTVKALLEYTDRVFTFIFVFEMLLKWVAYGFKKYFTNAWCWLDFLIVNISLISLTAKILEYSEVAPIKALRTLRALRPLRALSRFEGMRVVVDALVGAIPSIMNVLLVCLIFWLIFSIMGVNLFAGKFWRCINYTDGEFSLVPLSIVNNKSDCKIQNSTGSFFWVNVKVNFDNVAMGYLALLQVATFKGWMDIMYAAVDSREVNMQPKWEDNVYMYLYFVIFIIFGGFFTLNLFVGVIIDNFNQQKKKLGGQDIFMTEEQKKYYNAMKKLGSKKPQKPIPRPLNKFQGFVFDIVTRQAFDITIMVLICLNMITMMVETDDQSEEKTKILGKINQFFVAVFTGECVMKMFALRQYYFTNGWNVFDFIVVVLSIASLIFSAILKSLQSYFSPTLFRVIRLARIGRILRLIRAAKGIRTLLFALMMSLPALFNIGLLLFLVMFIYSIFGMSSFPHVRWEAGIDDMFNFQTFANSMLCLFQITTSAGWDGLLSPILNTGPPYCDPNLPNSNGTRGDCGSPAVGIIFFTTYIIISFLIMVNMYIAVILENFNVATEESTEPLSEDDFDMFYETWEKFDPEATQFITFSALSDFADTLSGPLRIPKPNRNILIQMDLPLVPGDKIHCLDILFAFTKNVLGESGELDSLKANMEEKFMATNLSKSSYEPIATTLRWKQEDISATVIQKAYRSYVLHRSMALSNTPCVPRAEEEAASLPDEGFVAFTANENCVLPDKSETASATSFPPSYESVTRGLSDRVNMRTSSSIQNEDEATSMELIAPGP

Consider `NS(=O)(=O)c1cccc(NC(=O)c2cc(C3CC3)cnc2N2CCCC(F)(F)CC2)c1` [Example 163, 5-cyclopropyl-2-(4,4-difluoroazepan-1-yl)-N-(3-sulfamoyl-phenyl)nicotinamide], for which it took 7.3 nM to reach half-maximal inhibition (IC50).
In the case of `NS(=O)(=O)c1cccc(NC(=O)c2cc(C(F)(F)C(F)(F)F)cnc2N2CCCCCC2)c1` [Example 164, 2-(azepan-1-yl)-5-(perfluoroethyl)-N-(3-sulfamoylphenyl)nicotinamide], the midpoint of inhibition, the IC50, lay at 15 nM.
`C[C@@H]1CN(c2ncc(C(F)(F)F)cc2C(=O)Nc2ccc3c(c2)S(=O)(=O)NC3)C[C@H](C)C1(F)F` [Example 111, 2-[(3S,5R)-4,4-difluoro-3,5-dimethyl-1-piperidyl]-N-(1,1-dioxo-2,3-dihydro-1,2-benzothiazol-6-yl)-5-(trifluoromethyl) pyridine-3-carboxamide]: half-maximal inhibition (IC50) was put at 63 nM.
The figure for `NS(=O)(=O)c1cccc(NC(=O)c2cc(C3COC3)cnc2N2CCCC(F)(F)CC2)c1` [Example 160, 2-(4,4-difluoroazepan-1-yl)-5-(oxetan-3-yl)-N-(3-sulfamoylphenyl)nicotinamide] is 681 nM; for `CS(=O)(=O)c1cccc(NC(=O)c2cc(C(F)(F)F)cnc2N2Cc3ccccc3C2)c1` [Example 103, 2-isoindolin-2-yl-N-(3-methylsulfonylphenyl)-5-(trifluoromethyl)-pyridine-3-carboxamide] it is 2330 nM.
The figure for `CS(=O)(=O)c1cccc(NC(=O)c2ccc(C(F)(F)F)nc2N2CCCCCC2)c1` [Example 82, 2-(azepan-1-yl)-N-(3-(methylsulfonyl)phenyl)-6-(trifluoro-methyl)nicotinamide] is 60 nM.
For `NS(=O)(=O)c1cccc(NC(=O)c2cc(C(F)(F)F)cnc2N2CC3CCC(C3)C2)c1` (racemic) [Example 45, 2-[rac-3-azabicyclo[3.2.1]octan-3-yl]-N-(3-sulfamoyl-phenyl)-5-(trifluoro-methyl)pyridine-3-carboxamide], the IC50 was found to be 12 nM.
Next, `Cc1cc(C)c(C(=O)Nc2cccc(S(N)(=O)=O)c2)c(N2CCCCCC2)n1` [Example 4, 2-(azepan-1-yl)-4,6-dimethyl-N-(3-sulfamoyl-phenyl)pyridine-3-carboxamide]: 14 nM; `NS(=O)(=O)c1cccc(NC(=O)c2cc(Cl)cnc2N2CCCCCC2)c1` [Example 31, 2-(azepan-1-yl)-5-chloro-N-(3-sulfamoyl-phenyl)pyridine-3-carboxamide]: 22 nM.
Next, `COC(=O)N1CCN(c2ncc(C(F)(F)F)cc2C(=O)Nc2cccc(S(N)(=O)=O)c2)CC1` [Example 74, methyl 4-[3-[(3-sulfamoylphenyl)carbamoyl]-5-(trifluoro-methyl)-2-pyridyl]-piperazine-1-carboxylate]: 9970 nM; `NS(=O)(=O)c1cccc(NC(=O)c2cc(Br)cnc2N2CCCCCC2)c1` [Example 32, 2-(azepan-1-yl)-5-bromo-N-(3-sulfamoyl-phenyl)pyridine-3-carboxamide]: 24 nM; `NS(=O)(=O)c1cccc(NC(=O)c2cc(C(F)(F)F)cnc2N2C[C@H]3CC[C@H]3C2)c1` [Example 134, 2-((1R,5S)-3-azabicyclo[3.2.0]heptan-3-yl]-N-(3-sulfamoyl-phenyl)-5-(trifluoro-methyl)-pyridine-3-carboxamide]: 25 nM.
In the case of `NS(=O)(=O)c1cccc(NC(=O)c2cc(OC(F)F)cnc2N2CCCC(F)(F)CC2)c1` [Example 172, 2-(4,4-difluoroazepan-1-yl)-5-(difluoromethoxy)-N-(3-sulfamoylphenyl)nicotinamide], the IC50 is 7.5 nM.
Turning to `Cc1cc(C(=O)Nc2cccc(S(N)(=O)=O)c2)c(N2CCCCCC2)nc1C` [Example 30, 2-(azepan-1-yl)-5,6-dimethyl-N-(3-sulfamoylphenyl) pyridine-3-carboxamide], the midpoint of inhibition, the IC50, lay at 12 nM.
The figure for `CC1CN(c2ncc(C(F)(F)F)cc2C(=O)Nc2cccc(S(N)(=O)=O)c2)CC(C)O1` (single isomer, unassigned) [Example 149, 2-[(2R,6S or 2S,6R)-2,6-dimethylmorpholin-4-yl]-N-(3-sulfamoylphenyl)-5-(trifluoromethyl) pyridine-3-carboxamide] is 351 nM.
The figure for `NS(=O)(=O)c1ccc(O)c(NC(=O)c2cc(C(F)(F)F)cnc2N2CCCCCC2)c1` [Example 25, 2-(azepan-1-yl)-N-(2-hydroxy-5-sulfamoyl-phenyl)-5-(trifluoro-methyl)pyridine-3-carboxamide] is 337 nM.
Next, `CC1(O)CCCN(c2ncc(C(F)(F)F)cc2C(=O)Nc2cccc(S(N)(=O)=O)c2)CC1` (centres unmarked) [Example 53, 2-(4-hydroxy-4-methyl-azepan-1-yl)-N-(3-sulfamoylphenyl)-5-(trifluoromethyl)-pyridine-3-carboxamide]: 304 nM.
In turn, `CS(=O)(=O)c1cccc(NC(=O)c2cc(C(F)(F)F)cnc2N2CCCCCCC2)c1` [Example 95, 2-(azocan-1-yl)-N-(3-methylsulfonylphenyl)-5-(trifluoromethyl)-pyridine-3-carboxamide] had an IC50 of 20 nM.
`CS(=O)(=O)c1cccc(NC(=O)c2cc(Br)cnc2N2CCCCCC2)c1` [Example 35, 2-(azepan-1-yl)-5-bromo-N-(3-methylsulfonyl-phenyl)pyridine-3-carboxamide] had an IC50 of 29 nM.
Compound `Cc1cc(C(=O)Nc2cccc(S(C)(=O)=O)c2)c(N2CCCCCC2)nc1C` [Example 36, 2-(azepan-1-yl)-5,6-dimethyl-N-(3-methyl-sulfonylphenyl)pyridine-3-carboxamide] came in with an IC50 of 31 nM.
Next, `CS(=O)(=O)c1cccc(NC(=O)c2cc(C(F)(F)F)cnc2N2CCC3(CC3)C(F)(F)C2)c1` [Example 101, 2-(8,8-difluoro-6-azaspiro[2.5]octan-6-yl)-N-(3-methyl-sulfonylphenyl)-5-(trifluoromethyl) pyridine-3-carboxamide]: 260 nM; `NS(=O)(=O)c1cccc(NC(=O)c2cc(C(F)(F)F)cnc2N2CC3CC(F)(F)C3C2)c1` (single isomer, unassigned) [Example 136, 2-[(1R,5S or 1S,5R)-6,6-difluoro-3-azabicyclo[3.2.0]heptan-3-yl]-N-(3-sulfamoyl-phenyl)-5-(trifluoromethyl)-pyridine-3-carboxamide]: 87 nM.
Next, `CC1CN(c2ncc(C(F)(F)F)cc2C(=O)Nc2cccc(S(N)(=O)=O)c2)CC(C)O1` (single isomer, unassigned) [Example 150, 2-[(2S,6S or 2R,6R)-2,6-dimethylmorpholin-4-yl]-N-(3-sulfamoylphenyl)-5-(trifluoromethyl) pyridine-3-carboxamide]: 414 nM; `COc1nc(N2CCCCCC2)c(C(=O)Nc2cccc(S(N)(=O)=O)c2)cc1Br` [Example 156, 2-(azepan-1-yl)-5-bromo-6-methoxy-N-(3-sulfamoylphenyl)nicotinamide]: 19 nM.
Next, `NS(=O)(=O)c1cccc(NC(=O)c2cc(C(F)(F)F)cnc2N2CC3CC4CC(C3)CC2C4)c1` [Example 46, N-(3-sulfamoylphenyl)-2-(4-azatricyclo-[4.3.1.13,8]undecan-4-yl)-5-(trifluoromethyl)-nicotinamide]: 12 nM; `C[Si](C)(C)c1cnc(N2CCCCCC2)c(C(=O)Nc2cccc(S(N)(=O)=O)c2)c1` [Example 86, 2-(azepan-1-yl)-N-(3-sulfamoylphenyl)-5-(trimethylsilyl)nicotinamide]: 77 nM.
